{"source": "patent US9492433B2", "about": "“Pharmaceutical composition for the treatment of Duchenne muscular dystrophy” (Summit Corporation Plc, priority 2012, dated 2016)", "type_in_all_cases": "physicochemical", "key": {"[1]": {"assay": "Water/octanol partition coefficient (ProfilerLDA isocratic chromatography)", "details": "octanol/water (octanol-coated column), pH 7.4; read-out: log D (water/octanol partition coefficient)", "procedure": "The water/octanol partition coefficient was determined with a ProfilerLDA isocratic chromatography system, using an octanol-coated column with octanol-saturated mobile phases."}, "[2]": {"assay": "Gravimetric vapour sorption analysis", "details": "Form I", "source_text": "Form I was subjected to gravimetric vapour sorption analysis, ramping profile from 0 to 90% RH at 10% RH increments."}, "[3]": {"assay": "Solubility in water and corn oil"}, "[4]": {"assay": "Solubility of C1100 Form I in pharmaceutically-acceptable solvents at 20° C. (HPLC of saturated solutions)", "details": "organic solvent or mixture, thermodynamic from solid, Form I polymorph, 4 hours equilibration", "procedure": "In each case, about 25 mg of drug substance was allowed to equilibrate with 250 μL of solvent over 4 hours. The resulting saturated solutions were filtered and analysed by HPLC."}}, "note": "Read-outs that look alike come from different tables or passages of the source."}
{"molecule": "CCS(=O)(=O)c1ccc2oc(-c3ccc4ccccc4c3)nc2c1", "note": "[C1100, 5-(ethylsulfonyl)-2-(naphthalen-2-yl)benzo[d]oxazole]", "values": [{"measurement": "chromatographic logD", "setting": "[1]", "result": "3.99 ± 0.01"}, {"measurement": "Moisture absorbed", "setting": "[2]; 0 to 90% RH at 10% RH increments, up to 90% RH, reversed under dry-air conditions", "result": "no more than 0.25 % by weight"}, {"measurement": "Hygroscopicity", "setting": "[2]; based on vapour sorption results", "result": "not hygroscopic"}, {"measurement": "solubility", "setting": "[3]; oil or lipid, corn oil, very slightly soluble, read-out: Solubility in corn oil", "result": 600, "unit": "µg/mL"}, {"measurement": "solubility", "setting": "[3]; water, practically insoluble, read-out: Solubility in water", "result": "< 1", "unit": "µg/mL"}, {"measurement": "solubility at 4 h", "setting": "[4]; solvent 1,4-dioxane", "result": 28400, "unit": "µg/mL"}, {"measurement": "solubility at 4 h", "setting": "[4]; solvent 1-butanol", "result": 350, "unit": "µg/mL"}, {"measurement": "solubility at 4 h", "setting": "[4]; solvent 1-propanol", "result": 790, "unit": "µg/mL"}, {"measurement": "solubility at 4 h", "setting": "[4]; solvent 2-butanol", "result": 850, "unit": "µg/mL"}, {"measurement": "solubility at 4 h", "setting": "[4]; solvent 2-propanol", "result": 470, "unit": "µg/mL"}, {"measurement": "solubility at 4 h", "setting": "[4]; solvent Acetone", "result": 27500, "unit": "µg/mL"}, {"measurement": "solubility at 4 h", "setting": "[4]; solvent Acetonitrile", "result": 5440, "unit": "µg/mL"}, {"measurement": "solubility at 4 h", "setting": "[4]; solvent Butan-2-one", "result": 3120, "unit": "µg/mL"}, {"measurement": "solubility at 4 h", "setting": "[4]; solvent Chloroform", "result": "> 50000", "unit": "µg/mL"}, {"measurement": "solubility at 4 h", "setting": "[4]; solvent Dimethylformamide", "result": "> 33800", "unit": "µg/mL"}, {"measurement": "solubility at 4 h", "setting": "[4]; solvent Dimethylsulfoxide", "result": 13200, "unit": "µg/mL"}, {"measurement": "solubility at 4 h", "setting": "[4]; solvent Ethanol", "result": 1140, "unit": "µg/mL"}, {"measurement": "solubility at 4 h", "setting": "[4]; solvent Ethyl acetate", "result": 8360, "unit": "µg/mL"}, {"measurement": "solubility at 4 h", "setting": "[4]; solvent Heptane", "result": 10900, "unit": "µg/mL"}, {"measurement": "solubility at 4 h", "setting": "[4]; solvent Methanol", "result": 1060, "unit": "µg/mL"}, {"measurement": "solubility at 4 h", "setting": "[4]; solvent Tetrahydrofuran", "result": 25900, "unit": "µg/mL"}, {"measurement": "solubility at 4 h", "setting": "[4]; solvent Toluene", "result": 8500, "unit": "µg/mL"}, {"measurement": "solubility at 4 h", "setting": "[4]; solvent tert-butyl methyl ether (TBME)", "result": 11700, "unit": "µg/mL"}]}
